In patent US8343539B2, “Compounds that bind α5β1 integrin and methods of use” (Regents of the University of Minnesota, priority 2006, dated 2013):
Entries after “also recorded” stand apart in the source; their conditions may differ. Where no end group is shown, it is not given here. (C16)2 = not defined here

Experiments:
HUVECs [1] = experiment: HUVEC adhesion on LB membranes of peptide-amphiphiles (Example 1); format: cell-based, human; settings: no serum; for HUVEC adhesion compared to FN: seeded 497 cells/mm^2
Source text: Surface preparation: Peptide-amphiphiles, listed in Table 1, were synthesized as described in the literature (Berndt et al., J. Am. Chem. Soc., 1995; 117:9515-9522). Langmuir-Blodgett (LB) membranes constructed from peptide-amphiphiles were deposited onto 15 mm mica disks as described elsewhere (Kokkoli et al., Langmuir, 2004; 20:2397-2404). Shortly before cell assays, the LB films were transferred into 24-well plates containing 1× phosphate buffered saline (PBS) solution (Mediatech), without exposing surfaces to air, as they rearrange to form multilayers (Hansma et al., Method. Cell Biol., 2002; 69:163-193). After equilibrating for 5-10 minutes, PBS was exchanged with 1 ml of MCDB-131 basal media (Sigma) supplemented with 0.1% bovine serum albumin (BSA) (Sigma) and antibiotics (Sigma) (2.5 μg/ml gentamicin, 2.5 μg/ml amphotericin B, 50 U/ml penicillin, and 50 μg/ml streptomycin), referred to as 0.1% BSA media. Surfaces were equilibrated at 37° C., 5% CO2 for 30-60 minutes before adding the cells. Human fibronectin-coated round coverslips (FN) 22 mm in diameter (BD Biosciences) were put into 12-well plates and 2 ml of 0.1% BSA media was added to each well. Surfaces were equilibrated for 30-60 minutes at 37° C., 5% CO2.
Cell culture: Human umbilical vein endothelial cells, HUVECs, (Cambrex Corporation) were cultured in MCDB-131 containing 20% fetal bovine serum (FBS) (Atlas Biologicals) at 37° C., 5% CO2. Other nutrients and antibiotics supplementing the media were added based on an optimal HUVEC proliferation study (Terramani et al., In Vitro Cell Dev. Biol.—Animal, 2000; 36:125-132). Media was changed in the culture flasks every other day. Cells used for adhesion and imaging studies were in passages 3-4.
Cell adhesion experiments: After cells became 90% confluent they were washed with PBS, trypsinized with 0.25% Trypsin-EDTA (Cambrex Corporation), neutralized with MCDB-131 with 2% FBS, and spun at 1000 rpm for 10 minutes. The supernatant was removed and the cell pellet was resuspended in 0.1% BSA media. Cells were counted with a hemocytometer and seeded onto LB and FN surfaces at a density of 497 cells/mm^2. Surfaces were incubated with cells in 0.1% BSA media at 37° C., 5% CO2, for 1, 4, 12, 24, 48, and 72 hours. Cell adhesion was quantified using the CyQuant Cell Proliferation Assay Kit, with a dye that binds to cellular nucleic acids, following the manufacturer's protocol (Molecular Probes). A calibration standard curve was created for each experiment. The plates were read on a SpectraMAX GeminiXS (Molecular Devices).

HUVECs [2] = experiment: HUVEC spreading on substrates (cell area); format: cell-based, human
Protocol: Cell spreading and fibronectin production experiments: Surface transferring, cell seeding, and incubation were done in the same manner as in the adhesion experiment, with a cell density of 497 cells/mm^2, and incubation times of 1, 12, 24, 48, and 72 hour. At the end of each incubation, the surfaces were removed, washed with […] of PBS, and fixed in 1 ml of 4% paraformaldehyde (Sigma) in PBS for 15 minutes at 37° C., 5% CO2. After washing with PBS, surfaces were first labeled for secreted fibronectin: surfaces were subjected to a blocking solution (0.1% BSA in PBS) for 30 minutes, incubated for 1 hour with a primary antibody specific for secreted fibronectin (mouse anti-human fibronectin (P1H11) monoclonal antibody (Chemicon Int.) at a 1:500 dilution in blocking solution, and then for 45 minutes with a secondary antibody (IgG fluorescein (FITC) conjugated antibody; Chemicon Int.) at a 1:200 dilution in PBS. As a final step, cell membranes and nuclei were stained using the Image-iT™ LIVE Plasma Membrane and Nuclear Labeling Kit following the manufacturer's protocol for labeling fixed cells (Molecular Probes). After final washing, surfaces were mounted onto glass slides and stored at 4° C. protected from light. An inverted fluorescent microscope (Nikon Eclipse TE200 with Pixcell II LCM) was used for imaging. Fibronectin production was assessed visually, by comparing 10-20 fluorescence images from two samples for each substrate (two independent experiments performed at different days). Cell spreading was quantified from two samples per substrate (two independent experiments performed at different days) by measuring cell area with the NIH imaging software.

HUVECs [3] = experiment: Fibronectin production staining (Example 2); format: cell-based, human; settings: 12 hours
Protocol: Fibronectin production staining: Surface preparation, transfer, and cellular work were all done as described in the previous methods. Only surfaces incubated with cells for 12 hours were stained. The staining protocol, involving a primary antibody for secreted fibronectin (Chemicon), a FITC-conjugated secondary antibody (Chemicon), and the Image-iT LIVE plasma membrane and nuclear labeling kit (Molecular Probes), was done as previously described in Example 1. A single photon confocal microscope (Olympus FluoView FV1000) was used for imaging. Two slides per substrate were prepared each during 2 separate experiments and each slide was imaged 2-4 times. The final images chosen were all taken from one experiment for consistency, but were representative of the images obtained from both experiments.

CT26.WT cells = experiment: Blocking of liposome binding with free PR_b peptide-amphiphile (flow cytometry); format: cell-based, mouse; settings: free peptide-amphiphile 200 μg/ml, 1 hr pre-incubation, 4° C.
Protocol: Flow cytometry: CT26.WT confluent cell monolayers were trypsinized (0.25% Trypsin+0.1% EDTA) and resuspended in ice-cold FB (fluorescent buffer: phosphate buffered saline (PBS) supplemented with 0.02% sodium azide and 2.5% fetal bovine serum) containing liposomes at a lipid concentration of 250 μM and a cell concentration of 1 million/ml in 15 ml centrifuge tubes. Tubes were incubated at 4° C. or 37° C. over a rotary shaker for the specified duration of time. Cells were then pelleted and washed twice in FB. Flow cytometric analysis was carried out immediately. For peptide blocking experiments, the protocol specified above was used except cells were incubated with 200 μg/ml of free peptide-amphiphile in FB for one hour prior to incubating the cells with the liposomes. For integrin α5β1 expression studies, CT26.WT confluent cell monolayers were trypsinized (0.25% Trypsin+0.1% EDTA) and resuspended in ice-cold FB at a cell concentration of 1 million/ml in 15 ml centrifuge tubes. Tubes were incubated at 4° C. with primary antibody (anti-integrin α5β1) or goat isotype control (goat IgG) over a rotary shaker for 35 min. Cells were then pelleted and washed twice in FB and then incubated again with the secondary antibody (anti-goat IgG FITC conjugated) for 35 min. Finally, cells were pelleted and washed twice. Flow cytometric analysis was carried out immediately. […]

Substance: (C16)2-Glu-C2-KSSPHSRNSGSGSGSGSGRGDSP ({(C16)2-Glu-C2}-KSSPHSRNSGSGSGSGSGRGDSP; not fully specified; reading uncertain) [PR_b]
- HUVEC adhesion compared to FN (HUVECs [1]; 1-24 hours): higher adhesion than FN
- Ability of substrate to sustain HUVEC adhesion over time (HUVECs [1]; 1-72 hours): effectively adhered
- HUVEC adhesion compared to the other peptide surfaces (HUVECs [1]; 1-72 hours): most promising sequence; also recorded: outperformed all other peptide substrates; also recorded: outperforms all other peptide surfaces
- HUVEC adhesion compared to FN (HUVECs [1]; 48-72 hours): similar; also recorded: equivalent
- HUVEC spreading (cell area) (HUVECs [2]; 1-24 hours): mostly spread
- HUVEC spreading, rank among surfaces (HUVECs [2]; all times examined, 1-72 hours): spread the most
- Fibronectin (ECM) production by adhered HUVECs (HUVECs [3]): good fibronectin production
- Blocking of binding of PR_b and GRGDSP targeted stealth liposomes (low PEG2000) to CT26.WT cells (CT26.WT cells): completely blocks the binding; also recorded: completely blocked
